Results reported in patent US10899962B2, “Camera module, lubricant composition, and electronic device” (Samsung Electro-Mechanics Co., Ltd., priority 2018, dated 2021).

Assay: solubility of the fluorinated fluorescent material at varied concentrations (FIG. 8, FIG. 11)
Type: physicochemical
Conditions: concentrations shown 0.25 wt %, 0.5 wt %, and 1 wt %
Description: More specifically, when using a compound represented by Chemical Formula 1, for example, a compound represented by Chemical Formula 1-1 for the fluorinated fluorescent material, the fluorinated fluorescent material is included, for example, in an amount from 0.1 wt % to less than 0.5 wt %, or even, for example, in an amount from 0.1 wt % to 0.3 wt %. This can be confirmed from FIG. 8 to FIG. 10. […] Referring to the drawings, it can be seen that solubility issues occur in concentrations of 0.5 wt % or higher. FIG. 9 and FIG. 10 show the fluorescence of a lubricant composition containing 0.25 wt % of a compound represented by Chemical Formula 1-1. […] From the drawings, it can be seen that the presence of the lubricant can be easily detected after application of the lubricant composition.
Furthermore, when using a compound represented by Chemical Formula 2, for example, a compound represented by Chemical Formula 2-1 for the fluorinated fluorescent material, the fluorinated fluorescent material is included, for example, in an amount from 0.01 wt % to less than 1.0 wt %, or even included, for example, in an amount from 0.03 wt % to 0.15 wt %. This can be confirmed from FIG. 11. […] Referring to the drawing, it can be seen that solubility issues occur in concentrations of 1.0 wt % or higher.

CCN(CC)c1ccc2c(C)cc(=O)oc2c1 [Chemical Formula 1-1]
concentrations in which solubility issues occur: ≥ 0.5 wt %
